From patent US7875343B2, “Anti-microbial carpet underlay and method of making” (L & P Property Management Company, priority 2003, dated 2011) come the findings set out here.

Read-outs that look alike come from different tables or passages of the source.

Experiment [1] relates to Klebsiella pneumoniae. From the text: (§1) Biocidal effectiveness of the rebonded carpet pad 12 and/or film 18 according the present invention may be determined by measuring inhibition of growth of bacterial and/or fungus using AATCC (American Association of Textile Chemists and Colorists) 174, ASTM E2180-1, and ASTM D 3273 test protocols compared to non-treated control standards. The AATCC 174 protocol was developed for determining the antimicrobial activity of new carpet materials.
(§2) A number of specimens of carpet underlay 10 were made by methods described above, with various concentrations of zinc pyrithione in the binder 16 and film 18 for testing to determine levels that provide an effective antimicrobial effect. The specimens included a film 18 on one side as illustrated in FIG. 1. This allowed testing of the foam side of the specimens to indicate antimicrobial effect of the pad 12 without film 18 and testing of the film side to indicate antimicrobial effect of the pad 12 with film 18. The AATCC 174 test method provides for testing both unwashed and washed samples. Washed samples were treated according to the AATCC 138 protocol.
(§3) The AATCC 174 test method includes three parts. Part I is a qualitative test for antibacterial activity. Test specimens are placed into contact with a nutrient agar which has been streaked with a bacterial culture. The specimens are then incubated. After incubation, a clear area of interrupted growth underneath and along the sides of the test specimen indicates antibacterial activity of the specimen. Standard strains of bacteria are used, with Staphylococcus aureus and Klebsiella pneumoniae being the representative organisms.

For experiment [2], the system named is Staphylococcus aureus. The conditions noted are these: unwashed foam side specimen with 751 ppm of zinc pyrithione.
Description: as §1, §2, §3

Experiment [3] deals with Klebsiella pneumoniae.
Description: as §1, §2
(§4) The AATCC 174, Part II test provides a quantitative procedure for the evaluation of the degree of antibacterial activity. Test specimens are inoculated with the test microorganisms. After incubation, the bacteria are eluted from specimens by shaking in 100 milliliters of liquid. The number of bacteria present in the liquid is determined and the percent reduction produced by the specimen is calculated.
This is another data set of the same source.

The subject of experiment [4] is Staphylococcus aureus.
Description: as §1, §2, §4

Experiment [5] concerns Aspergillus niger. As to conditions: 28 degrees C., seven days.
Description: as §1, §2

Experiment [6] has as its system Aspergillus niger. As to conditions: film side specimens, total minimum combined concentration (pad + film) of about 1600 ppm.
Description: as §1

The test system of experiment [7] is Aspergillus niger. Here is the method:
as §1
Inhibitory mold activity was also tested by the ASTM E2180-01 test method. […] The total combined concentration is the sum of the concentration in the pad 12 of a specimen and the concentration in the film 18 of the specimen.

Where [8] appears, read: washed foam side specimen containing 751 ppm of zinc pyrithione.
The mark [9] stands for this setting: washed foam side specimen containing 1096 ppm of zinc pyrithione.
Where [10] appears, read: all unwashed and washed film and foam side specimens, 500 ppm or more in the film and 1096 ppm in the pad.

As to `[O-]n1ccccc1=S.[O-]n1ccccc1=S.[Zn+2]` [zinc pyrithione, Bis(1-hydroxy-2(1H)-pyridinethionato-O,S)-(T-4)Zinc], the “growth of Klebsiella pneumoniae underneath and along the sides of the specimen” value in the experiment on Klebsiella pneumoniae [1] (all unwashed and washed foam side specimens with 1096 ppm or more of zinc pyrithione) is “inhibited the growth”. In the experiment with Klebsiella pneumoniae [1] (unwashed foam side specimen with 751 ppm of zinc pyrithione), the “zone of inhibition for Klebsiella pneumoniae” value is given as “one”. Further, the “zone of inhibition for Staphylococcus aureus” value in the experiment with Staphylococcus aureus [2] is “two”. The “reduction in the numbers of Klebsiella pneumoniae” value with Klebsiella pneumoniae [3] (setting [8]) and in the experiment on Klebsiella pneumoniae [3] (setting [9]) was 90% each time. The “average reduction in Staphylococcus aureus” value with Staphylococcus aureus [4] (setting [10]) turned out to be 92%. Also, the “reduction in Staphylococcus aureus (minimum over specimens)” value with Staphylococcus aureus [4] (setting [10]) is on record as “at least 66%”. The “reduction in the numbers of Staphylococcus aureus” value in the experiment with Staphylococcus aureus [4] (setting [8]) and in the experiment on Staphylococcus aureus [4] (setting [9]) was 90% each time. Further, the “fungus growth (Aspergillus niger)” value is reported as “No growth was observed” with Aspergillus niger [5] (washed and unwashed film side samples, 1500 ppm or greater of zinc pyrithione in the film); “no observable fungus growth” in the experiment with Aspergillus niger [5] (washed and unwashed foam side samples, 1096 ppm of zinc pyrithione in the pad). The “Aspergillus niger mold colonization” value in the experiment on Aspergillus niger [6] is listed as “No Aspergillus niger mold colonization was observed”. Besides, the “inhibitory activity for Aspergillus niger” value in the experiment with Aspergillus niger [7] (film side specimens, total minimum combined concentration (pad + film) of 1600 ppm) is reported as “Good inhibitory activity”; in the experiment on Aspergillus niger [7] (total combined concentration of 1251 ppm, i.e. 751 ppm in the pad and 500 ppm in the film), “Good results were achieved for some, but not all, specimens”.
